Consider twelve compounds from patent publication US5045566A, “Novel imidate insecticides” (ICI Americas Inc., priority 1989, dated 1991).

Holding throughout (assay type): in vivo
The subject of experiment [1] is Black Bean Aphid [Aphis fabae (Scop.)]. Put plainly: Black bean aphid spray test on nasturtium (BBA), 48 hours. To be noted: percent of test compound in sprayed solution. Put shortly:
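LC50, given as percent test compound in the sprayed liquid, was calculated from dosage-mortality curves using concentrations from 0.05% downward. Sprays in 50:50 acetone-water went to runoff on ~5 cm nasturtiums carrying 25-50 aphids of mixed ages, one day after infestation. Deaths were counted 48 h later under greenhouse conditions.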

The subject of experiment [2] is Maize weevil [Sitophilus zeamais (Motschulsky)]. Put plainly: Maize weevil on dipped corn seeds (MW), 48 hours. To be noted: percent in solution, adult weevils. Put shortly:
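LC50, given as percent of compound in dipping solution, comes from dosage-mortality curves over concentrations descending from 0.01%. Four corn seeds soaked 2-3 s in 50:50 acetone:water solution were dried and held with 10 adult weevils, about 25° C, mortality read after 48 h.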

Experiment [3] relates to Tobacco Budworm [Heliothis virescens (Fabricius)] eggs. The experiment can be described thus: Tobacco budworm eggs (TBW-E). The conditions noted are these: percent in solution; 2-day old eggs. Put shortly: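 Paper towel patches bearing 2-day old eggs were dipped in acetone solutions of compound, then set in petri dishes over larval rearing medium at 78° F. Mortality was scored once all control eggs had hatched and larvae were feeding. LC50, from dosage-mortality curves, is given as percent compound in solution.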

Experiment [4] deals with Housefly [Musca domestica]. The experiment can be described thus: Housefly contact mortality in dishes (HF), 48 hours. To be noted: μg of test compound per 25 female flies. Put shortly:
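Residual contact test: acetone dilution, 0.01% peanut oil spreader, solvent evaporated; 25 ♀ flies (1-2 d old) per cage; sugar-water plug; 48 h mortality read. LC50 in μg/25 female flies, from dose-mortality curves; top dose 100 μg/25 flies.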

Experiment [5] has as its system Cabbage Looper [Trichoplusia ni (Hubner)]. The experiment can be described thus: Cabbage looper leaf dip (CL), 3-5 days. To be noted: percent in solution, second-instar larvae. In outline: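 Compounds in 50-50 acetone-water were applied by dipping squash cotyledons (about 1×1.5 in) for 2-3 s; dried leaves went into petri dishes on moist filter paper with 5 second-instar larvae under high humidity. Mortality was scored after 3-5 days; LC50 from dosage-mortality curves, as percent compound in solution.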

In the case of `CC(C)C(=Nc1ccc(Br)c(Br)c1)OCc1ccc(F)c(Oc2ccccc2)c1` [Compound 384], the “LC50 BBA” value in experiment [1] is listed as 0.0008%. The “LC50 MW” value in experiment [2] is greater than 0.01%. The “LC50 TBW E (eggs)” value in experiment [3] was 0.025%. Also, in experiment [4], the “LC50 HF” value was less than 100 µg. In addition, in experiment [5], the “LC50 CL” value is recorded as greater than 0.1%.
Consider `CC(C)c1ccc(N=C(OCc2cccc(Oc3ccccc3)c2)C2CCC2)cc1` [Compound 339], for which the “LC50 BBA” value in experiment [1] is reported as 0.03%. Further, the “LC50 MW” value in experiment [2] was greater than 0.01%. Also, in experiment [3], the “LC50 TBW E (eggs)” value is given as greater than 0.1%. In experiment [4], the “LC50 HF” value was greater than 100 µg. The “LC50 CL” value in experiment [5] came to 0.017%.
Consider `CC(C)C(=Nc1ccc(I)c(Cl)c1)OCc1cccc(Oc2ccc(F)cc2)c1` [Compound 374], for which the “LC50 BBA” value in experiment [1] was 0.0008%. The “LC50 MW” value in experiment [2] is on record as greater than 0.01%. Also, in experiment [3], the “LC50 TBW E (eggs)” value worked out at 0.02%. Moreover, the “LC50 HF” value in experiment [4] is less than 100 µg. In experiment [5], the “LC50 CL” value was determined as 0.00058%.
The like results for `Cc1ccc(N=C(OCc2ccc(F)c(Oc3ccc(Cl)cc3)c2)C(C)C)cc1C` [Compound 406] were, in that order, 0.001%, greater than 0.01%, less than 0.1%, less than 100 µg and greater than 0.1%.
`Cc1cc(N=C(OCc2ccc(F)c(Oc3ccc(Cl)cc3)c2)C(C)C)ccc1Br` [Compound 407]: the “LC50 BBA” value in experiment [1] was 0.0007%. In addition, the “LC50 MW” value in experiment [2] is greater than 0.01%. In addition, the “LC50 TBW E (eggs)” value in experiment [3] is given as 0.05%. Moreover, the “LC50 HF” value in experiment [4] was greater than 100 µg. Besides, the “LC50 CL” value in experiment [5] was greater than 0.1%.
As for `C=C(C)C(=Nc1ccc(C(F)(F)F)cc1)OCc1cccc(Oc2ccc(F)cc2)c1` [Compound 442], the “LC50 BBA” value in experiment [1] is given as 0.001%. Besides, the “LC50 MW” value in experiment [2] is listed as greater than 0.01%. Moreover, in experiment [3], the “LC50 TBW E (eggs)” value is recorded as 0.035%. Besides, the “LC50 HF” value in experiment [4] is less than 100 µg. The “LC50 CL” value in experiment [5] stood at 0.0007%.
Consider `Clc1ccc(N=C(OCc2cccc(Oc3ccccc3)c2)C2CCC2)cc1` [Compound 8], for which, in experiment [1], the “LC50 BBA” value was 0.03%. The “LC50 MW” value in experiment [2] is on record as greater than 0.01%. Further, in experiment [3], the “LC50 TBW E (eggs)” value is on record as greater than 0.1%. The “LC50 HF” value in experiment [4] was 50 µg. Further, the “LC50 CL” value in experiment [5] stood at 0.01%.
With `Cc1ccc(N=C(OCc2ccc(F)c(Oc3ccc(Cl)cc3)c2)C(C)C)cc1Cl` [Compound 404], the “LC50 BBA” value in experiment [1] is listed as 0.002%. Also, the “LC50 MW” value in experiment [2] is given as greater than 0.01%. In experiment [3], the “LC50 TBW E (eggs)” value came out at 0.025%. In experiment [4], the “LC50 HF” value was less than 100 µg. For the same compound, in experiment [5], the “LC50 CL” value was greater than 0.1%.
As for `CC(C)C(=Nc1ccc(Cl)cc1)OCc1cccc(Oc2ccccc2)n1` [Compound 553], the “LC50 BBA” value in experiment [1] stood at 0.05%. Besides, the “LC50 MW” value in experiment [2] is listed as greater than 0.01%. For the same compound, the “LC50 TBW E (eggs)” value in experiment [3] came out at 0.1%. Further, in experiment [4], the “LC50 HF” value was less than 100 µg. The “LC50 CL” value in experiment [5] is less than 0.1%.
On to `COc1ccc(N=C(OCc2ccc(F)c(Oc3ccccc3)c2)C(C)C)cc1Cl` [Compound 409], for which, in experiment [1], the “LC50 BBA” value is recorded as 0.0005%. The “LC50 MW” value in experiment [2] is given as greater than 0.01%. Further, the “LC50 TBW E (eggs)” value in experiment [3] stood at 0.025%. Also, the “LC50 HF” value in experiment [4] was less than 100 µg. Besides, the “LC50 CL” value in experiment [5] came out at 0.0017%.
Turning to `Cc1cccc(N=C(OCc2ccc(F)c(Oc3ccc(Cl)cc3)c2)C(C)C)c1` [Compound 401], the “LC50 BBA” value in experiment [1] is given as 0.0006%. In addition, in experiment [2], the “LC50 MW” value is on record as greater than 0.01%. Besides, in experiment [3], the “LC50 TBW E (eggs)” value is given as 0.04%. Further, in experiment [4], the “LC50 HF” value was less than 100 µg. Also, the “LC50 CL” value in experiment [5] was determined as 0.0017%.
Turning to `CC(C)C(=Nc1ccc(Cl)c(C(F)(F)F)c1)OCc1cccc(Oc2ccccc2)n1` [Compound 555], in experiment [1], the “LC50 BBA” value is listed as 0.0035%. For the same compound, in experiment [2], the “LC50 MW” value is greater than 0.01%. Moreover, the “LC50 TBW E (eggs)” value in experiment [3] is reported as greater than 0.1%. The “LC50 HF” value in experiment [4] is less than 100 µg. Further, the “LC50 CL” value in experiment [5] is listed as 0.002%.
